Key:
[1] = system: Reticulitermes santonensis (termite); test: EN 117 determination of the activity threshold against Reticulitermes santonensis (laboratory test); assay type: in vivo; conditions: for activity threshold against termites, EN 117 (with EN 84): after EN 84 leaching stress
[2] = system: Hylotrupes bajulus (house longhorn beetle); test: EN 46 determination of the prophylactic effect on egg larvae of Hylotrupes bajulus (laboratory test); assay type: in vivo; conditions: for activity threshold against wood-destroying beetles, EN 46 (with EN 84): after EN 84 leaching stress

Row | SMILES | activity threshold against termites, EN 117 (with EN 84) [1] | activity threshold against wood-destroying beetles, EN 46 (with EN 84) [2] [g/m^2] | activity threshold against wood-destroying beetles, EN 46 (without stress) [2] [g/m^2] | activity threshold against termites, EN 117 (without stress) ([1]; without stress)
1 | CC1(C)C(C=C(Cl)Cl)C1C(=O)OC(C#N)c1ccc(F)c(Oc2ccccc2)c1 (stereo not shown) [cyfluthrin] | 10-20 g/m^3 | <0.006 | <0.006 | –
2 | CCOC(=O)NCCOc1ccc(Oc2ccccc2)cc1 [fenoxycarb] | ineffective | 0.050 | 0.005 | ineffective

From patent US20070149576A1, “Means for protecting against technical materials” (priority 2003, published 2007)
